Target: T1, Cucumis sativus (cucumber) lipid body lipoxygenase (cslbLOX, 13-LOX), wild type, X92890, FIG. 5 (Cucumis sativus, UniProt Q42710)
T1 sequence (Q42710 1-878): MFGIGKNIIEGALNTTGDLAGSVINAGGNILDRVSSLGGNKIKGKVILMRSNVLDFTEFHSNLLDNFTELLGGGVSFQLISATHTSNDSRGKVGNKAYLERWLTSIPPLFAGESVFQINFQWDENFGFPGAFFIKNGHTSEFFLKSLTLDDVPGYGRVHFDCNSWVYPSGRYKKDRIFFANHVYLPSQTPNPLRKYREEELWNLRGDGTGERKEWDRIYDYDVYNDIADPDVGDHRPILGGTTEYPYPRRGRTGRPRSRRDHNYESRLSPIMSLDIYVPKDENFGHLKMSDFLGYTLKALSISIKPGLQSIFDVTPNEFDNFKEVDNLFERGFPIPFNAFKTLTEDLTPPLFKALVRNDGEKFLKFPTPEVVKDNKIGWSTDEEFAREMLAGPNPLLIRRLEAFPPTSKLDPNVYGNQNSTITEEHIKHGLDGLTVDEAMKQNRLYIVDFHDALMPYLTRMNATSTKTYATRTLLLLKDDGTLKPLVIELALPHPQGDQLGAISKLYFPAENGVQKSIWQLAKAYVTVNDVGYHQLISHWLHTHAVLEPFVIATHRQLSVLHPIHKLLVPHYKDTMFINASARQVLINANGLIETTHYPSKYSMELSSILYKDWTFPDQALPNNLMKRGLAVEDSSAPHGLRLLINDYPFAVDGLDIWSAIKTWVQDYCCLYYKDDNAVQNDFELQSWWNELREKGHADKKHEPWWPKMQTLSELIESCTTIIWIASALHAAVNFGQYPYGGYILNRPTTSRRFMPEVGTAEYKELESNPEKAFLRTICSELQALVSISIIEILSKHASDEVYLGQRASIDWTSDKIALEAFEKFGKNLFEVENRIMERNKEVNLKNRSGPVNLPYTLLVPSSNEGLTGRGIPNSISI
Experiment: Kinetic characterization of wild-type LOX (13-LOX) with LA
Format: biochemical
Settings: 23 points measured between 100 μM and 250 μM LA
Description: For the bacterial expression of wild-type LOX and for directed mutagenesis the plasmid pQE-30 (Qiagen, Hilden, Germany), which contained the cDNA of the LOX from lipid bodies of cucumber cotyledons as an insert (LOXpQE 30: cf. Feussner, I., Bachmann, A., Höhne, M. & Kindl, H. (1998) FEBS Lett. 431, 433-436) was used. The mutagenesis was carried out with the aid of the QuikChange Mutagenesis Kit from Stratagene (Heidelberg, Germany). Oligonucleotides with the appropriate base exchanges were obtained from MWG-Biotech (Ebersberg, Germany). For the analysis of the mutations further conservative base exchange was initiated in order to create new restriction division sites or to delete existing ones. In addition all the mutations were sequenced and at least three different bacterial clones expressed and used for the investigation of enzymatic properties. The expression of LOXpQE-30 and all the mutations was carried out according to Feussner, I., Bachmann, A., Höhne, M. & Kindl, H. (1998) FEBS Left. 431, 433-436. Cells from 1-liter cultures were resuspended in 5 to 7 ml lysis buffer and with the aid of an ultrasound needle broken up with pulses each of 30 seconds, and the cell debris made into pellets. The affinity purification of the polyHis-extended LOX was carried out as previously described (cf. Feussner, I., Bachmann, A., Höhne, M. & Kindl, H. (1998) FEBS Lett. 431, 433436).

CCCCC/C=C\C/C=C\CCCCCCCC(=O)O [LA, linoleic acid]
Km: 115 µM
LA turnover at Vmax condition (substrate saturation): 12 s⁻¹
